Assay results as given in patent US20080051364A1, “Therapeutic Treatment of Accelerated Bone Resorption” (priority 2004, published 2008).

Experiments:
AIA rats [1] = assay: Histological score of joints of AIA rats; assay type: in vivo, rat
Description: (§1) Female Lewis rats, aged 8-10 weeks, obtained from Harlan Laboratories (Jerusalem, Israel), were injected subcutaneously (SC) at the tail base with 100 μl of suspension composed of incomplete Freund's adjuvant with 10 mg/ml heat killed Mycobacterium tuberculosis. Each group contained 10 animals and each experiment was conducted at least three times.
(§2) Drugs were orally administered by gavage, twice daily. The […] received vehicle only (DMSO in a dilution corresponding to that of the drug) while the treatment groups received 10 μg/kg of IB-MECA. Treatment was initiated on day 14 after vaccination.
The foot, knee and hip region of both vehicle and CF101 treated animals were collected and fixed in 10% buffered formalin and decalcified in hydrochloric acid (Calci-Clear Rapid) (Pational Diagnostics, Gr, USA) for 24 h. The specimens were then processed for paraffine embedding, histologic 4-μm sections were cut and stained with hematoxylin and eosin. The sections were assessed by a pathologist blinded to the treatment protocols, and each joint was scored separately. The histology score was assessed as follows: A score of 0 to 4 for the extent of inflammatory cells' infiltration to was used according to the followed: 0—Normal; 1—minimal inflammatory infiltration; 2—mild infiltration; 3—moderate infiltration; 4—marked infiltration. The pannus formation joint tissues, synovial lining cell hyperplasia. The score was graded […]: 0—normal; 1—minimal loss of cortical bone at a few sites; 2—mild loss of cortical trabecular bone; 3—moderate loss of bone at many sites; 4—marked loss of bone at many sites; 5—marked loss of bone at many sites with fragmenting and full thickness penetration of inflammatory process or pannus into the cortical bone. The mean of all the histological parameter scores were designated “Histology Score”.
At day 23 after the disease induction, the animals were scarified, and joints from two hind paws of each animal were harvested and examined histologically. The histological analysis was carried out on the basis of infiltration of inflammatory cells, synovial hyperplasia, cartilage and bone destruction. Most of the histophathological changes were found in the interophalangeal region of the foot. […] Overall, the severity of joint histopathology was correlated with the clinical severity index.

[2] = Plasma half life in human studies; assay type: in vivo; details: data not shown
Description: (§3) Based on the above conversion methods, the preferred dosage range for two specific A3AR agonist, e.g. IB-MECA and Cl-IB-MECA, would be less than 4 mg, typically within the range of about 0.01 to about 2 mg (about 0.14-28 micrograms/Kg, respectively) and desirably within the range of about 0.1 to 1.5 mg (about 1.4-21 micrograms/Kg, respectively). This dose may be administered once, twice or, at times, several times a day.

AIA rats [3] = assay: Clinical disease score and paw thickness in the Adjuvant Induced Arthritis (AIA) rat model; assay type: in vivo
Description: as §1, §2
The animals were inspected every second day for clinical arthritis. The scoring system ranged from 0-4 of each limb: 0—no arthritis; 1—redness or swelling of one toe/finger joint; 2—redness and swelling of more than one toe/finger joints, 3—the ankle and tarsal-metatarsal joints involvement. 4—entire paw redness or swelling. The inflammatory intensity was also determined in accordance with the increase in the rat hind paw's diameter, measured by caliper (Mitotoyo, Tokyo, Japan).

[4] = test system: key signaling protein expression down-stream to A3AR activation in paw extracts; assay: Western blot analysis of key signaling proteins in paw extracts from AIA rats; assay type: in vivo, rat
Description: The hind paws were dissected above the ankle joint. The bony tissue was broken into pieces broken, snap frozen in liquid nitrogen and stored at −80° C. until use. The paw tissues were added to (4 ml/g tissue) RIPA extraction buffer containing 150 mM NaCl, 50 mM Tris, 1% NP40, 0.5% Deoxycholate and 0.1% SDS. Tissues were homogenized on ice with a polytron, centrifuged and the supernatans were subjected to Western Blot analysis
Western blot analysis (WB) of paw extracts were carried out according to the following protocol. Samples were rinsed with ice-cold PBS and transferred to ice-cold lysis buffer (TNN buffer, 50 mM Tris buffer pH=7.5, 150 mM NaCl, NP 40). Cell debris was removed by centrifugation for 10 min, at 7500×g. Protein concentrations were determined using the Bio-Rad protein assay dye reagent. Equal amounts of the sample (50 μg) were separated by SDS-PAGE, using 12% polyacrylamide gels. The resolved proteins were then electroblotted onto nitrocellulose membranes (Schleicher & Schuell, Keene, N.H., USA). Membranes were blocked with 1% BSA and incubated with the desired primary antibody (dilution 1:1000) for 24 h at 4° C. Blots were then washed and incubated with a secondary antibody for 1 h at room temperature. Bands were recorded using BCIP/NBT color development kit (Promega, Madison, Wis., USA). Data presented in the different figures are representative of at least four different experiments.
The hind paws of animals from the control and IB-MECA treated groups were dissected and after protein extraction the samples were subjected for WB analysis. […] The activation of the A3AR led to a 40% decrease in the RANKL protein expression level in paw extracts derived from IB-MECA treated AIA rats. […] This Chain of events led a 50% reduction in the expression level of TNF-α upon IB-MECA treatment.

[5] = test system: Adjuvant Induced Arthritis (AIA), collagen induced arthritis (CIA) and thropomyosine induced arthritis; details: different experimental animal models; Baharav et al. 2004; cited from earlier work
Plasma half life in mice = assay type: in vivo
Description: as §3

For `CNC(=O)[C@H]1O[C@@H](n2cnc3c(NCc4cccc(I)c4)ncnc32)[C@H](O)[C@@H]1O` [IB-MECA, N^6-(3-iodobenzyl)-adenosine-5′-N-methyluronamide], the bone loss (AIA rats [1]; AIA rat model, summary statement) was “prevents bone loss”, the “fibrosis and hyperplasia of the synovia” value (AIA rats [1]; day 23 (FIGS. 3A-3B)) was “almost no the fibrosis and mild hyperplasia of the synovia” and the pannus tissue development (AIA rats [1]; day 23 (FIGS. 4A-4B)) was “mild evidence for a development of pannus tissue”. The “cartilage texture / destruction” value (AIA rats [1]; day 23 (FIGS. 5A-5B)) was “appeared to be normal”, the presence of osteoblasts (AIA rats [1]; day 23 (FIGS. 8A-8B)) was “low presence of osteoblasts” and the new bone formation (AIA rats [1]; day 23 (FIGS. 9A-9B)) was “slight new bone formation”. The “reduction in the appearance of osteoclasts” value (AIA rats [1]; day 23, in comparison to the control group (FIGS. 6A-6B)) was 73%, the “inflammatory changes in the joints, mean total score” value (AIA rats [1]; day 23, score 0-4, control 3.2±0.14 (FIGS. 2A-2B)) was 0.4±0.034 and the “histopathological changes in the knee region” value (AIA rats [1]; day 23 after disease induction, vs vehicle group) was “remained intact”. For the same molecule, the “half life in plasma” value [2] was 8 to 10 h, the paw edema (AIA rats [3]; AIA rats, 10 μg/kg orally twice daily from day 14) was “significantly decreased” and the “inhibition in the paw thickness” value (AIA rats [3]; AIA rats, 10 μg/kg orally twice daily from day 14 (FIG. 1B)) was 35%±1.2. The “maximal clinical arthritic score” value (AIA rats [3]; AIA rats, 10 μg/kg orally twice daily from day 14, score 0-4 of each limb, control 8.7±0.76 (FIG. 1A)) was 4.8±0.95, the “paw appearance (redness and swelling)” value (AIA rats [3]; representative paw vs control group (FIG. 1C)) was “appears completely normal” and the A3AR expression ([4]; WB (FIG. 10A)) was “Modulation in the A3AR itself was noted”. The “decrease in the RANKL protein expression level” value ([4]; WB (FIG. 10B)) was 40%, the “level of IKK” value ([4]; WB (FIG. 10C)) was “down-regulation” and the “level of NF-κB” value ([4]; WB (FIG. 10C)) was “reduced level”. For the same molecule, the “reduction in the expression level of TNF-α” value ([4]; WB (FIG. 10C)) was 50%, the “PI3K protein expression level” value ([4]; WB, vs control (FIG. 10C)) was “reduction in the protein expression level” and the “PKB/AKT protein expression level” value ([4]; WB, vs control (FIG. 10C)) was “reduction in the protein expression level”. The “clinical and pathological manifestations of arthritis” value [5] was “efficacious in preventing the clinical and pathological manifestations of arthritis” and the half life (Plasma half life in mice) was 1.5 h.
